Experiments:
Type in all cases: biochemical
MMP-2FL = biological target: T1, MMP-2FL (Homo sapiens, UniProt P08253); experiment: thiopeptolide hydrolysis assay, full length Gelatinase A; conditions: thiopeptolide substrate, HEPES pH 7.0, 22° C.
T1 sequence (P08253 110-660): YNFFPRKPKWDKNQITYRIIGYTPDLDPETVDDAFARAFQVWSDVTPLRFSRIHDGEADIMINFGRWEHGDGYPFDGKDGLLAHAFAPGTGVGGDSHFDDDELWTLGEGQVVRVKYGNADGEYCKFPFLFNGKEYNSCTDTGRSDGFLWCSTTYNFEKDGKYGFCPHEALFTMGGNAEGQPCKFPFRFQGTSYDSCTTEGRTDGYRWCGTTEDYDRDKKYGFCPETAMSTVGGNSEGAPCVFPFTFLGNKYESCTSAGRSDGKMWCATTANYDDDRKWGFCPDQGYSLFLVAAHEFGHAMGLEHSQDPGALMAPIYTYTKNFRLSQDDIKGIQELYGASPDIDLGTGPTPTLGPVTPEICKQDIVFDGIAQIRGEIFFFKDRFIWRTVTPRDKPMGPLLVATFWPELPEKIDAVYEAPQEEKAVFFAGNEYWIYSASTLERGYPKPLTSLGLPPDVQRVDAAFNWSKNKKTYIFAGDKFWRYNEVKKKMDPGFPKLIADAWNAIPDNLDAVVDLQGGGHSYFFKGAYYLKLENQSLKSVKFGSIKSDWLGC
Excerpt: (§1) The assays measure the amount by which a test compound reduces the hydrolysis of a thiopeptolide substrate catalyzed by a matrix metalloproteinase enzyme. Such assays are described in detail by Ye et al., in Biochemistry, 1992;31(45):11231-11235, which is incorporated herein by reference.
(§2) Thiopeptolide substrates show virtually no decomposition or hydrolysis at or below neutral pH in the absence of a matrix metalloproteinase enzyme. A typical thiopeptolide substrate commonly utilized for assays is Ac-Pro-Leu-Gly-thioester-Leu-Leu-Gly-OEt. A 100 μL assay mixture will contain 50 mM of N-2-hydroxyethylpiperazine-N′-2-ethanesulfonic acid buffer (“HEPES”) at pH 7.0, 10 mM CaCl2, 100 μM thiopeptolide substrate, and 1 mM 5,5′-dithio-bis-(2-nitro-benzoic acid) (DTNB). The thiopeptolide substrate concentration may be varied from, for example, 10 to 800 μM to obtain Km and Kcat values. The change in absorbance at 405 nm is monitored on a Thermo Max microplate reader (Molecular Devices, Menlo Park, Calif.) at room temperature (22° C.). The calculation of the amount of hydrolysis of the thiopeptolide substrate is based on E412=13600 M^−1 cm^−1 for the DTNB-derived product 3-carboxy-4-nitrothiophenoxide. Assays are carried out with and without matrix metalloproteinase inhibitor compounds, and the amount of hydrolysis is compared for a determination of inhibitory activity of the test compounds.
(§3) Several representative compounds have been evaluated for their ability to inhibit various matrix metalloproteinase enzymes. In Table 1, MMP-1FL refers to full length interstitial collagenase; MMP-2FL refers to full length Gelatinase A; MMP-3CD refers to the catalytic domain of stromelysin-1; MMP-7FL refers to full length matrilysin; MMP-9FL refers to full length Gelatinase B; MMP-13CD refers to the catalytic domain of collagenase 3; and MMP-14CD refers to the catalytic domain of MMP-14. Test compounds were evaluated at various concentrations in order to determine their respective IC50 values, the micromolar concentration of compound required to cause a 50% inhibition of the catalytic activity of the respective enzyme.

MMP-9FL = MMP-9FL (Homo sapiens, UniProt P14780); experiment: thiopeptolide hydrolysis assay, full length Gelatinase B; conditions: thiopeptolide substrate, HEPES pH 7.0, 22° C.
MMP-9FL, sequence (P14780 94-707): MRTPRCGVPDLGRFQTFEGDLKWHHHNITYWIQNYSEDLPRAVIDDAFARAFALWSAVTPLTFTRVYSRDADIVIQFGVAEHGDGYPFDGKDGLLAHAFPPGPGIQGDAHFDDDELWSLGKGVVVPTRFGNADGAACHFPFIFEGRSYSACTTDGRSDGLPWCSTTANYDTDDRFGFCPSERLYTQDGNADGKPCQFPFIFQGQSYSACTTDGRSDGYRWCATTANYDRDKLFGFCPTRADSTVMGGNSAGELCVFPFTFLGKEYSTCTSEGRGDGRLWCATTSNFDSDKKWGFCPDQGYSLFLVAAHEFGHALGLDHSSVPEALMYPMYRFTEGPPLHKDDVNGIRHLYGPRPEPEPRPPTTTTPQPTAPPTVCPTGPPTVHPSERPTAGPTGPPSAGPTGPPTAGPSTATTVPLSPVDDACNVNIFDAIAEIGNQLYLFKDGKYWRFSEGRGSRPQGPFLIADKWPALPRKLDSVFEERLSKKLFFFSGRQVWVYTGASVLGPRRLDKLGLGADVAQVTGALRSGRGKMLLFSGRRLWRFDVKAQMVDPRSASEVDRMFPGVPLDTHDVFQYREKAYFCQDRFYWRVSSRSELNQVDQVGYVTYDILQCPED
Excerpt: as §1, §2, §3

MMP-14CD = MMP-14CD (Homo sapiens, UniProt P50281); experiment: thiopeptolide hydrolysis assay, catalytic domain of MMP-14; conditions: thiopeptolide substrate, HEPES pH 7.0, 22° C.
Excerpt: as §1, §2, §3

MMP-7FL = biological target: T2, MMP-7FL (Homo sapiens, UniProt P09237); experiment: thiopeptolide hydrolysis assay, full length matrilysin; conditions: thiopeptolide substrate, HEPES pH 7.0, 22° C.
T2 sequence (P09237 95-267): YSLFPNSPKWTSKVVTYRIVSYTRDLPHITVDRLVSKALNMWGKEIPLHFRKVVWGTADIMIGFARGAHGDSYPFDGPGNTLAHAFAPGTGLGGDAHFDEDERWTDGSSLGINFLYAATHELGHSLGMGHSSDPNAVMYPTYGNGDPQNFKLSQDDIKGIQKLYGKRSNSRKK
Excerpt: as §1, §2, §3

MMP-3CD = MMP-3CD (Homo sapiens, UniProt P08254); experiment: thiopeptolide hydrolysis assay, catalytic domain of stromelysin-1; conditions: thiopeptolide substrate, MES buffer pH 6.0
MMP-3CD, sequence (P08254 100-272 limits assumed): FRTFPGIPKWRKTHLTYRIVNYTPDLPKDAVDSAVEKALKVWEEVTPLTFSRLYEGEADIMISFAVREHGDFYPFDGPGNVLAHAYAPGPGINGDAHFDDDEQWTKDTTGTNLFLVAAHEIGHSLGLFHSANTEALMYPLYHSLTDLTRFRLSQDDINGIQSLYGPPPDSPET
Excerpt: as §1, §2, §3
It should be appreciated that the assay buffer used with MMP-3CD was 50 mM of 2-morpholinoethanesulfonic acid monohydrate (“MES”) at pH 6.0, rather than the HEPES buffer at pH 7.0 described above.

MMP-1FL = biological target: T3, MMP-1FL (Homo sapiens, UniProt P03956); experiment: thiopeptolide hydrolysis assay, full length interstitial collagenase; conditions: thiopeptolide substrate, HEPES pH 7.0, 22° C.
T3 sequence (P03956 100-469): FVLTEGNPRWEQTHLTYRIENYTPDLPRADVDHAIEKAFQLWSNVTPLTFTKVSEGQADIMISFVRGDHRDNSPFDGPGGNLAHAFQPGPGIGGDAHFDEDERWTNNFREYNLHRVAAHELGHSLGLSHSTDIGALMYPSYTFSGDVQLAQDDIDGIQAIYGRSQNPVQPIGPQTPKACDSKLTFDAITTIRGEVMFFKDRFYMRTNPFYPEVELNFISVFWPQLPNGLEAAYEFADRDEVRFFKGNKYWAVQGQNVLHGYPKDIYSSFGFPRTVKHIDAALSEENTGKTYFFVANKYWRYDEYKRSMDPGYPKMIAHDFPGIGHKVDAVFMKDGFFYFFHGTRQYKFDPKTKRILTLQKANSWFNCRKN
Excerpt: as §1, §2, §3

MMP-13CD = MMP-13CD (Homo sapiens, UniProt P45452); experiment: thiopeptolide hydrolysis assay, catalytic domain of collagenase 3; conditions: thiopeptolide substrate, HEPES pH 7.0, 22° C.
Excerpt: as §1, §2, §3

SMILES	IC50 (MMP-2FL)	IC50 (MMP-9FL)	IC50 (MMP-14CD)	IC50 (MMP-7FL)	IC50 (MMP-3CD)	IC50 (MMP-1FL)	IC50 (MMP-13CD)
CC1(C)SCCN(S(=O)(=O)c2ccc3c4c(oc3c2)CCCC4)[C@H]1C(=O)NO [Example 4, (S)-2,2-Dimethyl-4-(6,7,8,9-tetrahydro-dibenzofuran-3-sulfonyl)thiomorpholine-3-carboxylic Hydroxamide]	82 nM	210 nM	52 nM	230 nM	9 nM	69 nM	12 nM
CC1(C)C(C(=O)O)N(S(=O)(=O)c2ccc3c4c(oc3c2)CCCCC4)CCS1(=O)=O (stereo not shown) [Example 6, 2,2-Dimethyl-1,1-dioxo-4-(6,7,8,9-tetrahydro-5H-10-oxa-benzo{a}azulene-2-sulfonyl)-1l^6-thiomorpholine-3-carboxylic Acid]	600 nM	70000 nM	93 nM	41000 nM	37 nM	40000 nM	2100 nM
CC1(C)C(C(=O)NO)N(S(=O)(=O)c2ccc3c4c(oc3c2)CCCCC4)CCS1(=O)=O (stereo not shown) [Example 7, 2,2-Dimethyl-1,1-dioxo-4-(6,7,8,9-tetrahydro-5H-10-oxa-benzo{a}azulene-2-sulfonyl)-1l^6-thiomorpholine-3-carboxylic Acid Hydroxyamide]	220 nM	450 nM	53 nM	420 nM	15 nM	970 nM	6.2 nM
CC1(C)SCCN(S(=O)(=O)c2ccc3c4c(oc3c2)CCCC4)[C@H]1C(=O)O [Example 3, (S)-2,2-Dimethyl-4-(6,7,8,9-tetrahydro-dibenzofuran-3-sulfonyl)thiomorpholine-3-carboxylic Acid]	390 nM	54000 nM	150 nM	100000 nM	39 nM	6900 nM	1310 nM
